According to US20230416209A1, “COMPOUNDS AND METHODS TO TARGET GLUCOSE-STIMULATED PHOSPHOHISTIDINE SIGNALING AND ESOPHAGEAL CANCER GROWTH” (Health Research, Inc., priority 2020, published 2023):
Read-outs that look alike come from different tables or passages of the source.

How the values were obtained:
KYSE70 cells = assay: BrdU coupling ELISA of Glc-induced ESCC cell proliferation; format: cell-based; conditions: Homo sapiens, KYSE-70, serum-free medium containing Glc, BrdU and varied concentrations of inhibitor, read-out: IC^50 on ESCC cell proliferation
Experimental: (§1) A. Top ranked small molecules that bind to FAK H58 site. B. FAK^His58 inhibitors attenuate Glc-induced phosphorylation of FAK H58. In the absence of growth factors, KYSE70 cells were stimulated by Glc with or without FAK^His58 inhibitors (H5). N=3, **: p<0.001 vs vehicle+Glc. C. Dose responses of FAK^His58 inhibitors on proliferation. KYSE70 cells were incubated in serum-free medium containing Glc, BrdU and varied concentrations of FAK^His58 inhibitors (H5). BrdU coupling ELISA was performed to assess the relative levels of newly synthesized BrdU-DNA. IC^50 values were calculated.
(§2) Reproducible test: BrdU coupling ELISA, pHis-FAK assays and IP/IB were performed to confirm the FAK H58 hit inhibition of ESCC proliferation, phosphorylation of FAK on H58 and FAK-RB1 interaction (FIGS. 2-4).

ESCC (KYSE520) cells = assay: WST1 analysis of cisplatin combined with FAK H58 inhibitor, KYSE520; format: cell-based
Experimental: ESCC (KYSE520) cells were seeded on a 96-well plate at a density of 2000 cells/well in complete medium. The next day, medium was replaced with the serum-reduced medium (5% FBS) containing 0-80 μM of cisplatin and 5 fixed doses of H5 (0 μM, 5 μM, 10 μM, 20 μM, or 40 μM). The cells were kept for 72 hrs. WST1 analysis, a MTT-like assay, was performed to assess proliferation. Log (inhibition) vs. response—variable (four parameters). Prism was utilized to find the best-fit value and to calculate a complete confidence interval.
Synergistic effects of the chemotherapy drug combined with FAK H58 inhibitor. Chemotherapies are commonly used treatments for patients with ESCC. It was sought to determine whether the inhibition of glucose-induced G1-to-S phase transition of the cell cycle coupled with the interruption of DNA synthesis by chemotherapeutic agents is synergistic. ESCC cells (KYSE70 and KYSE520) were cultured in the medium containing reduced FBS (5%), 0-80 μM of cisplatin and 5 fixed doses of H5 (0, 5, 10, 20, or 40 μM) for 72 hr. Cell proliferation was assessed using WST1, a MTT-like reagent.
To assess the synergistic effects of cisplatin coupled with the FAK H58 inhibitor derivative (H5A), ESCC cells (KYSE70 and KYSE520) were treated with 0-80 μM of cisplatin and 5 fixed doses of H5 Å for 72 hr. The H5 derivative H5 Å enhanced the inhibitory effects of cisplatin in KYSE70 from 4 to 2 μM (FIG. 7) and in KYSE520 from 27 to 24 μM (FIG. 8), respectively.

TE10 cells = assay: WST-1 proliferation assay, TE10 cells; format: cell-based; conditions: Homo sapiens, TE-10; medium containing 5% FBS, 48 hr, WST-1 assay; read-out: IC^50, TE10
TE9 = assay: WST-1 proliferation assay, TE9 cells; format: cell-based; conditions: Homo sapiens, TE-9; medium containing 5% FBS, 48 hr, WST-1 assay; read-out: IC^50 of H5 on ESCC cells, TE9
FAK^pHis58 = assay: Glc-induced phosphorylation of FAK H58 in KYSE70 cells; format: cell-based; conditions: KYSE70 cells stimulated by Glc in the absence of growth factors
Experimental: as §1, §2

FAK-RB1 interaction = FAK-RB1 interaction (Homo sapiens, UniProt Q05397); assay: FAK-RB1 interaction assay (rFAK/rRB1 co-IP ELISA); format: biochemical; conditions: rFAK with 0-10 μM for 1 hr, then rRB1 3 hr
Sequence of FAK-RB1 interaction (Q05397 whole entry): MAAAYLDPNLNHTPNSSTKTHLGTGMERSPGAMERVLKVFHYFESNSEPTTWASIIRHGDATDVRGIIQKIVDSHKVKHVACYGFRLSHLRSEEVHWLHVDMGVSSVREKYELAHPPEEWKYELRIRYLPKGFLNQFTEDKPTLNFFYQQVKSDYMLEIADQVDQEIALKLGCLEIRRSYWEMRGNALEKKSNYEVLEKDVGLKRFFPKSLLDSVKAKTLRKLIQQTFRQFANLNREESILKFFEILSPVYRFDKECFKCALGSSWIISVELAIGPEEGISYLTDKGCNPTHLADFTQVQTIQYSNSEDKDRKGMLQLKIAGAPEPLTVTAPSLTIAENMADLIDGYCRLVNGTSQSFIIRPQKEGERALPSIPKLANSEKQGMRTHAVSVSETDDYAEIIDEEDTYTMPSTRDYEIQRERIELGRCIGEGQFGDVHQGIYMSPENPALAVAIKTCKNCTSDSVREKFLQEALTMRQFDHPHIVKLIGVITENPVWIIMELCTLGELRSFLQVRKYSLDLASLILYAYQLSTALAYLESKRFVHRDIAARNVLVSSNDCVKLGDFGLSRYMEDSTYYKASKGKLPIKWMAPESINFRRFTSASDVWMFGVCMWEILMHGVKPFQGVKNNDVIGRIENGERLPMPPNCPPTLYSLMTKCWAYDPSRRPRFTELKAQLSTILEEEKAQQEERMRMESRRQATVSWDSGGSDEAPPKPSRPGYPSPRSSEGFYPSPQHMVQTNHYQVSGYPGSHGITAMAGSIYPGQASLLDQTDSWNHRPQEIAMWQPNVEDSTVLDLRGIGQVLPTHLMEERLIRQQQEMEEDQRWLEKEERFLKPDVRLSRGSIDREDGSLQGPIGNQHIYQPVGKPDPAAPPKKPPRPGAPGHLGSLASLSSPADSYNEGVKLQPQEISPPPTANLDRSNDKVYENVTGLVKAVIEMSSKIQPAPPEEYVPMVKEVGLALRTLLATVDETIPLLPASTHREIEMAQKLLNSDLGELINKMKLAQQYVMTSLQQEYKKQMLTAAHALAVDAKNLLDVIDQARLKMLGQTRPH
Experimental: Then, rRB1 was added to mixture and kept at room temperature for 3 hr. The mixture was added to the anti-FAK antibody-coated plated. After extensive washing, the co-IPed rRB1 was detected using an anti-RB1 antibody.

KYSE70 = assay: WST-1 proliferation assay, KYSE70 cells; format: cell-based; conditions: Homo sapiens, KYSE-70; medium containing 5% FBS, 48 hr, WST-1 assay; read-out: IC^50 of H5 on ESCC cells, KYSE70
NME1 (Homo sapiens) = assay: NME1-catalyzed histidine phosphorylation of recombinant FAK (pHis-rFAK ELISA); format: biochemical; conditions: purified NME1 and rFAK, 0-1 μM, 3 hr
Sequence of NME1 (Homo sapiens) (Q05397 whole entry): as above
From the text: A. Assessment of Glc-altered NM1 phosphorylation of pHis-FAK. NME1 was pulldown with an anti-NME1 antibody from KYSE70 cells +/−Glc stimulation and added to the anti-pHis antibody (rabbit)-coated wells. The anti-FAK (mouse) was used to detect the pHis-FAK on the plate. N=3, *: p<0.05, ***: p<0.001 and ****: p<0.0001 vs No NME1 or NME1 (−Glc). B. Glc increases NME1 in xenograft lysates derived from fasting mice +/−Glc. C. H5 attenuates NME1-increased levels of pHis-rFAk. Purified NMR1 and recombinant FAK (rFAK) were incubated in the NME kinase buffer in the presence of varied concentrations (0-1 μM) of vehicle of H5 for 3 hr. The relative levels of pHis-rFAK were assessed using ELISA.

ESCC (KYSE70) cells = assay: WST1 analysis of cisplatin combined with FAK H58 inhibitor, KYSE70; format: cell-based; conditions: KYSE70, 72 hr
Experimental: ESCC (KYSE70) cells were seeded on a 96-well plate at a density of 2000 cells/well in complete medium. The next day, medium was replaced with the serum-reduced medium (5% FBS) containing 0-80 μM of cisplatin and 5 fixed doses of H5 (0 μM, 5 μM, 10 μM, 20 μM, or 40 μM). The cells were kept for 72 hrs. WST1 analysis, a MTT-like assay, was performed to assess proliferation. Log (inhibition) vs. response-variable (four parameters). Prism was utilized to find the best-fit value and to calculate a complete confidence interval. […] ESCC (KYSE70) cells were seeded on a 96-well plate at a density of 2000 cells/well in complete medium. The next day, medium was replaced with the serum-reduced medium (5% FBS) containing 0-80 μM of cisplatin and 5 fixed doses of H5 (0 μM, 5 μM, 10 μM, 20 μM, or 40 μM). The cells were kept for 72 hrs. WST1 analysis, a MTT-like assay, was performed to assess proliferation. Log (inhibition) vs. response-variable (four parameters). Prism was utilized to find the best-fit value and to calculate a complete confidence interval. Synergistic effects of the chemotherapy drug combined with FAK H58 inhibitor. Chemotherapies are commonly used treatments for patients with ESCC. […] Cell proliferation was assessed using WST1, a MTT-like reagent. […]

Compound | IC50 (KYSE70 cells) [µM] | Effect of combination with cisplatin on proliferation (ESCC (KYSE520) cells; KYSE520, 72 hr) | IC50 (TE10 cells) [nM] | IC50 (TE9) [nM] | Effect on Glc-induced FAK^pHis58 (FAK^pHis58) | Effect on FAK-RB1 interaction (FAK-RB1 interaction) | IC50 (KYSE70) [µM] | Effect on NME1-catalyzed FAK^pHis (pHis-rFAK levels) (NME1 (Homo sapiens)) | IC50 (ESCC (KYSE520) cells; KYSE520, 5% FBS, 72 hr, before adding H5, read-out: IC50 of cisplatin) [µM] | IC50 (ESCC (KYSE520) cells; KYSE520, 5% FBS, 72 hr, fixed doses of H5 (5-40 μM), read-out: IC50 of cisplatin combined with H5) [µM] | IC50 (ESCC (KYSE520) cells; KYSE520, 72 hr, before adding H5A, read-out: IC50 of cisplatin (inhibitory effects)) [µM] | IC50 (ESCC (KYSE520) cells; KYSE520, 72 hr, fixed doses of H5A, read-out: IC50 of cisplatin combined with H5A) [µM] | IC50 (ESCC (KYSE70) cells; before adding H5A, read-out: IC50 of cisplatin (inhibitory effects)) [µM] | IC50 (ESCC (KYSE70) cells; fixed doses of H5A, read-out: IC50 of cisplatin combined with H5A) [µM]
O=c1nc(-c2ccccc2)c(-c2ccccc2)n[nH]1 [H5, 5,6-diphenyl-1,2,4-triazin-3(2H)-one] | 9 | enhanced the effects of cisplatin | 88 | 380 | decreased Glc-induced FAK^pHis58 | prevents Glc-induced FAK-RB1 interaction | 5.7 | attenuates NME1-catalyzed FAK^pHis | – | – | – | – | – | –
CCOC(=O)CSc1nnc(-c2ccccc2)c(-c2ccccc2)n1 [H5B, ethyl [(5,6-diphenyl-1,2,4-triazin-3-yl)thio]acetate] | – | – | 65 | – | – | – | – | – | – | – | – | – | – | –
N.N.[Cl][Pt][Cl] [cisplatin] | – | – | – | – | – | – | – | – | 31 | 23 | 27 | 24 | 4 | 2
